Results on 25 compounds are retold here after article PMC9995496, “A screen for MeCP2-TBL1 interaction inhibitors using a luminescence-based assay” (Scientific Reports, 2023).

Where a name gives a salt, the structure may show the parent alone.

This assay has as its system PRKACA-PRKAR2A interaction (SmBiT-PRKACA / LgBiT-PRKAR2A), protein kinase A. Set-up: NanoLuc complementation counter-screen in cell extract, PRKACA with PRKAR2A, loss of luminescence, detects NanoLuc interference. To be noted: counter-screen for NanoLuc interference; 0.5 h, 20 µM; inhibitor.
As for `C[C@H](NC(=O)/C(C#N)=C/c1cccc(Br)n1)c1ccccc1` [UM0141729:01, WP1066], the “Inh (PKA)” value is 28.21%.

Regarding `Cc1cnc(Nc2ccc(N3CCN(C)CC3)cc2)nc1Nc1cccc(S(=O)(=O)NC(C)(C)C)c1` [UM0141731:01, TG101209], the “Inh (PKA)” value was 36.26%. On to `CN1CCN(c2cccc(Nc3nc4c(-c5ccc(S(C)(=O)=O)cc5)cccn4n3)c2)CC1` [UM0141732:01, CEP-33779], for which the “Inh (PKA)” value is 32.81%. In the case of `CCn1c(C(=O)N(C2CC2)C2CC2)cc2c3c(ncn3C)c(Nc3cc(C)n(C)n3)nc21` [UM0141734:01, BMS-911543], the “Inh (PKA)” value was determined as 4.215%. Regarding `Cn1ncnc1[C@H]1c2n[nH]c(=O)c3cc(F)cc(c23)N[C@@H]1c1ccc(F)cc1` [UM0141735:01, BMN 673], the “Inh (PKA)” value was 5.771%. The result for `NC(=O)c1ccc(I)c([N+](=O)[O-])c1` [UM0141736:01, Iniparib (BSI-201)] reads 1.39%; that for `CN(C)Cc1ccc(-c2nc3cccc4c3n2CCNC4=O)cc1` [UM0141737:01, AG-14361], 2.033%; that for `CN(C)CC(=O)Nc1ccc2[nH]c(=O)c3ccccc3c2c1` [UM0141738:01, PJ34 hydrochloride], 3.156%. The figure for `NC(=O)c1cccc2[nH]c(-c3ccc([C@@H]4CCCN4)cc3F)nc12` [UM0141739:01, A-966492] is 5.639%; for `O=C(COc1cccc2c(=O)[nH]ccc12)c1ccccc1` [UM0141740:01, UPF 1069] it is 15.76%. For the compound `COC1CCN(C(=O)c2cc(Cc3n[nH]c(=O)c4ccccc34)ccc2F)CC1` [UM0141741:01, AZD2461], the “Inh (PKA)” value was found to be 1.514%.

For the compound `CC(C)N(CCCNC(=O)Nc1ccc(C(C)(C)C)cc1)C[C@H]1O[C@@H](n2cc(Br)c3c(N)ncnc32)[C@H](O)[C@@H]1O` [UM0141743:01, SGC 0946], the “Inh (PKA)” value is listed as 3.83%. The result for `CCN(CC)C(=O)/C(C#N)=C/c1cc(O)c(O)c([N+](=O)[O-])c1` [UM0141744:01, Entacapone] reads 34.9%; that for `CC(C)N(CCCNC(=O)Nc1ccc(C(C)(C)C)cc1)C[C@H]1O[C@@H](n2ccc3c(N)ncnc32)[C@H](O)[C@@H]1O` [UM0141745:01, EPZ004777], 1.222%; that for `Cc1cc(C)c(CNC(=O)c2cc(-c3ccc(CN4CCOCC4)cc3)cc3c2cnn3C2CCCC2)c(=O)[nH]1` [UM0141746:01, EPZ005687], 11.88%. The result for `Nc1nc2[nH]cnc2c(=S)[nH]1` [UM0141747:01, Thioguanine] reads 3.135%; that for `CC(NC(=O)c1ccccc1/N=C/c1c(O)ccc2ccccc12)c1ccccc1` (stereo not shown) [UM0141749:01, Sirtinol], 11.59%; that for `COc1ccccc1S(=O)(=O)Nc1ccc2c(c1)CN(C)C(=O)N2` [UM0141750:01, PFI-1 (PF-6405761)], 3.719%. The result for `CCOC(=O)Nc1cc(-c2ccc(C)c(NS(C)(=O)=O)c2)nn2c(C)nnc12` [UM0141751:01, Bromosporine] reads 9.043%; that for `Cc1nc(C(=O)NCC(=O)O)c(O)c2ccc(Oc3ccccc3)cc12` [UM0141752:01, FG-4592 (ASP1517)], 9.511%.

For `O=C(O)CNC(=O)c1c(O)c2ccccc2n(Cc2ccccc2)c1=O` [UM0141753:01, IOX2(Glycine)], the “Inh (PKA)” value was found to be 18.92%. The figure for `CCOC(=O)CCNc1cc(N2CCc3ccccc3CC2)nc(-c2ccccn2)n1` [UM0141754:01, GSK J4 HCl] is 11.33%; for `O=C(O)CCNc1cc(N2CCc3ccccc3CC2)nc(-c2ccccn2)n1` [UM0141755:01, GSK J1] it is 1.8%. The figure for `CN1CCC(CNc2ccc3ncc(-c4cccc(OC(F)(F)F)c4)n3n2)CC1` [UM0141756:01, SGI-1776 free base] is 32.18%; for `O=C1NC(=O)/C(=C/c2cccc(C(F)(F)F)c2)S1` [UM0141757:01, SMI-4a] it is 63.38%.
